Results from patent US6683103B2, “Sulfonamides for treatment of endothelin-mediated disorders” (Texas Biotechnology Corporation, priority 1997, dated 2004).
Like-named read-outs stand apart in the source and are kept apart here.

Key:
human ETA receptors = biological target: T1, human ETA receptors (Homo sapiens, UniProt P25101); test: Binding Test #1: inhibition of 125I-ET-1 binding to ETA receptors (TE 671 cell membranes); details: read-out: ETA
T1 construct: endogenous in cells; host or cells: TE 671 cells (ATCC HTB 139)
T1 sequence (P25101 21-427): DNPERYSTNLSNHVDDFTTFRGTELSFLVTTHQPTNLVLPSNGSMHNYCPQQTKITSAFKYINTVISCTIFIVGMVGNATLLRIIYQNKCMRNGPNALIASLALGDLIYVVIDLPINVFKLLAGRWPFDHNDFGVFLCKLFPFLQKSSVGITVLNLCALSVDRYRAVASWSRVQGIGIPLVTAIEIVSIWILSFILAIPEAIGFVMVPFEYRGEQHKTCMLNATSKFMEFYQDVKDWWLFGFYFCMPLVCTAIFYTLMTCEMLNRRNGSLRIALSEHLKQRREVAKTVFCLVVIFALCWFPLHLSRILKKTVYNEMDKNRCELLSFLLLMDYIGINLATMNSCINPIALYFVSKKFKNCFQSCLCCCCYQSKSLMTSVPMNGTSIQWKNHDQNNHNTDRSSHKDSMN
Summary of the method: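 Membranes from TE 671 cells (up to 8 μg protein) incubated with ¹²⁵I-ET-1 and compound (1 nM–100 μM final) in 30 mM HEPES pH 7.4, 150 mM NaCl, 5 mM MgCl2, 0.5% bacitracin, 16–18 h at 4 °C or alternatively at 24 °C. Nonspecific binding with 80 nM ET-1; bound pellet gamma-counted, % inhibition calculated, usually triplicate.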

human ETB receptor = biological target: T2, human ETB receptor (Homo sapiens, UniProt P24530); test: Binding Test #2: inhibition of 125I-ET-1 binding to ETB receptors (transfected COS7 cell membranes); details: read-out: ETB
T2 construct: expressed in transfected cells; host or cells: COS7 cells
T2 sequence (P24530 27-442): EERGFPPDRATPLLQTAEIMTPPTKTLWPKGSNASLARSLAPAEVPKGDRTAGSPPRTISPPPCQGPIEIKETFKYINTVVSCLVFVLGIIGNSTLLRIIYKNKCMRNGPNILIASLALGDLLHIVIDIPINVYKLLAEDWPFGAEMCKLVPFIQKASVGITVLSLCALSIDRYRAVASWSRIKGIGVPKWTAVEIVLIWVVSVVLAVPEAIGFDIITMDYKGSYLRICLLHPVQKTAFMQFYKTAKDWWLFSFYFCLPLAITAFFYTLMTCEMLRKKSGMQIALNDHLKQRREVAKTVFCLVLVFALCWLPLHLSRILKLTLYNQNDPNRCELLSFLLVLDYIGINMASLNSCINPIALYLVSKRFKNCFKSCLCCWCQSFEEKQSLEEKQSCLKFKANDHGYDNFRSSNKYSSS
Summary of the method: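 Competition with 125I-ET-1 for binding to membranes from COS7 cells transfected with human ETB receptor, used at 1 μg/50 μl binding buffer. Membranes prepared in HEPES pH 7.4 with aprotinin, including a DNase/MnCl2 step at 37 °C for 30 min.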

[1] = Table 2, † incubation at 24° C.
[2] = Table 1, † incubation at 24° C.

Row | IC50 (human ETA receptors; Table 1, incubation at 4° C.) [µM] | IC50 (human ETB receptor; Table 1, incubation at 4° C.) [µM] | IC50 (human ETA receptors; [2]) [µM] | IC50 (human ETB receptor; [2]) [µM] | Compound | also measured
1 | 5 | 7 | – | – | Cc1noc(NS(=O)(=O)c2ccc(Sc3ccccc3)o2)c1Br [N-(4-bromo-3-methyl-5-isoxazolyl)-5-(phenthio)furan-2-sulfonamide] | –
2 | < 0.01 | 1.67 | – | – | Cc1ccc(NC(=O)c2sccc2S(=O)(=O)Nc2onc(C)c2Br)cc1 [N-(4-bromo-3-methyl-5-isoxazolyl)-2-[-(4-tolulylaminocarbonyl]thiophene-3-sulfonamide] | –
3 | 0.359 | 2.67 | – | – | Cc1noc(NS(=O)(=O)c2cc(Br)c(Cl)s2)c1Br [4-bromo-5-chloro-N-(4-Bromo-3-methyl-5-isoxazolyl)-thiophene-2-sulfonamide] | –
4 | – | – | > 100 | 31 | Cc1noc(NS(=O)(=O)c2ccc(-c3ccc(C(=O)O)cc3)s2)c1Br [N-(4-bromo-3-methyl-5-isoxazolyl)-5-(4-carboxyphenyl)thiophene-2-sulfonamide] | –
5 | – | – | 6.9 | 1.58 | Cc1ccc(/C=C/c2cc(-c3ccc(C)cc3)sc2S(=O)(=O)Nc2onc(C)c2Br)cc1 [N-(4-bromo-3-methyl-5-isoxazolyl)-3-(4-methyl-trans-styryl)-5-(4-tolyl)thiophene-2-sulfonamide] | –
6 | 0.0956 | 7.8 | – | – | Cc1cc(S(=O)(=O)Nc2onc(C)c2Br)c(C)s1 [N-(4-Bromo-3-methyl-5-isoxazolyl)-2,5-dimethylthiophene-3-sulfonamide] | –
7 | 5.1 | 0.363 | – | – | Cc1noc(NS(=O)(=O)c2ccc(-c3cccs3)s2)c1Br [N-(4-bromo-3-methyl-5-isoxazolyl)-5-(2′-thienyl)thiophene-2-sulfonamide] | –
8 | – | – | 0.0027 | 29.2 | N-(3,4-dimethyl-5-isoxazolyl)-2-(4-tolylacetylphenyl)thiophene-3-sulfonamide | –
9 | 0.314 | 2.26 | – | – | Cc1noc(NS(=O)(=O)c2ccc(Br)s2)c1Br [N-(4-bromo-3-methyl-5-isoxazolyl)-5-bromothiophene-2-sulfonamide] | –
10 | 0.651 | 7.15 | – | – | Cc1ccsc1S(=O)(=O)Nc1onc(C)c1Br [N-(4-bromo-3-methyl-5-isoxazolyl)-3-methylthiophene-2-sulfonamide] | –
11 | 0.011 | 2.82 | – | – | Cc1noc(NS(=O)(=O)c2ccsc2C(=O)Nc2ccc(C(C)(C)C)cc2)c1Br [N-(4-bromo-3-methyl-5-isoxazolyl)-2-(4-t-butylphenyl)aminocarbonylthiophene-3-sulfonamide] | –
12 | 0.75 | 88.1 | – | – | Cc1noc(NS(=O)(=O)c2ccco2)c1Br [N-(4-bromo-3-methyl-5-isoxazolyl)furan-2-sulfonamide] | –
13 | – | – | 6.1 | > 50 | Cc1noc(NS(=O)(=O)c2ccsc2C(=O)Oc2ccc3c(c2)OCO3)c1C [N-(3,4-dimenthyl-5-isoxazolyl)-2-[3,4-(methylenedioxy)phenox] [N-(3,4-dimenthyl-5-isoxazolyl)-2-[3,4-(methylenedioxy)phenoxycarbonyl]thiophene-3-sulfonamide] | –

Second part, the compound before the results:

Row | Compound | IC50 (human ETA receptors; Table 1, incubation at 4° C.) [µM] | IC50 (human ETB receptor; Table 1, incubation at 4° C.) [µM] | IC50 (human ETA receptors; [2]) [µM] | IC50 (human ETB receptor; [2]) [µM] | also measured
14 | Cc1onc(NS(=O)(=O)c2ccc(-c3ccccc3)cc2)c1Cl [N-(4-chloro-5-methyl-3-isoxazolyl)-4-biphenylsulfonamide] | – | – | – | – | IC50 (human ETA receptors; Table 2, incubation at 4° C.): 3.7 µM; IC50 (human ETA receptors; [1]): 18.6 µM; IC50 (human ETB receptor; Table 2, incubation at 4° C.): 0.23 ± 0.01 µM; IC50 (human ETB receptor; [1]): 1.29 µM
15 | Cc1noc(NS(=O)(=O)c2ccc(-c3cc(C(F)(F)F)cc(C(F)(F)F)c3)s2)c1Br [N-(4-bromo-3-methyl-5-isoxazolyl)-5-[3,5-bis(triflouromethyl)phenyl]thiophene-2-sulfonamide] | 0.794 | 12 | 5.9 | 15.5 | –
16 | N-(4-chloro-3-methyl-5-isoxazolyl)-2-[β-(dimethylamino)-3,4-(methylenedioxy)phenethyl]thiophene-3-sulfonamide | – | – | 20.9 | ~100 | –
17 | Cc1noc(NS(=O)(=O)c2ccc(-c3ccccc3)cc2)c1Br [N-(4-bromo-3-methyl-5-isoxazolyl)-4-biphenylsulfonamide] | – | – | – | – | IC50 (human ETA receptors; Table 2, incubation at 4° C.): 3.3 µM; IC50 (human ETA receptors; [1]): 49 µM; IC50 (human ETB receptor; Table 2, incubation at 4° C.): ~0.17 µM; IC50 (human ETB receptor; [1]): 1.23 µM
18 | Cc1ccc(Cc2cc(-c3ccc(C)cc3)sc2S(=O)(=O)Nc2onc(C)c2Br)cc1 [N-(4-bromo-3-methyl-5-isoxazolyl)-3-(4-methylbenzyl)-5-(4-tolyl)thiophene-2-sulfonamide] | – | – | 4.69 | 1.56 | –
19 | Cc1noc(NS(=O)(=O)c2ccsc2CC2(c3ccc4c(c3)OCO4)OCCO2)c1Cl [N-(4-chloro-3-methyl-5-isoxazolyl)-2-[β,β-(ethylenedioxy)-3,4-(methylenedioxy)phenethyl]thiophene-3-sulfonamide] | – | – | 0.128 | 2.09 | –
20 | Cc1onc(NS(=O)(=O)c2ccc(-c3ccccc3)cc2)c1Br [N-(4-bromo-5-methyl-3-isoxazolyl)-4-biphenylsulfonamide] | – | – | – | – | IC50 (human ETA receptors; Table 2, incubation at 4° C.): 6.4 ± 2 µM; IC50 (human ETA receptors; [1]): 49 µM; IC50 (human ETB receptor; Table 2, incubation at 4° C.): 0.29 ± 0.02 µM; IC50 (human ETB receptor; [1]): 1.78 µM
21 | Cc1noc(NS(=O)(=O)c2sccc2/C=C/c2ccc3c(c2)OCO3)c1Br [N-(4-bromo-3-methyl-5-isoxazolyl)-3-[3,4-(methylenedioxy)-trans-styryl]thiophene-2-sulfonamide] | – | – | 0.218 | 10 | –
22 | Cc1noc(NS(=O)(=O)c2cc(-c3ccc(C(C)C)cc3)cs2)c1Br [N-(4-bromo-3-methyl-5-isoxazolyl)-4-(4′-isopropylphenyl))thiophene-2-sulfonamide] | 5.5 | 1.3 | – | – | –
23 | Cc1noc(NS(=O)(=O)c2cc3ccccc3s2)c1C [N-(3,4-dimethyl-5-isoxazolyl)benzo[b]thiophene-2-sulfonamide] | 7.22 | 11.1 | – | – | –
24 | Cc1ccc(/C=C/c2sccc2S(=O)(=O)Nc2onc(C)c2Br)cc1 | – | – | 0.26 | 0.413 | –
25 | Cc1noc(NS(=O)(=O)c2sccc2Sc2ccccc2)c1Br [N-(4-bromo-3-methyl-5-isoxazolyl)-3-(phenylthio)thiophene-2-sulfonamide] | – | – | 0.0801 | 3.68 | –
26 | N-(4-bromo-3-methyl-5-isoxazolyl)-4′-methoxyphenyl-4-biphenylsulfonamide | – | – | – | – | IC50 (human ETA receptors; Table 2, incubation at 4° C.): 14.7 ± 5.6 µM; IC50 (human ETA receptors; [1]): 122 ± 2.12 µM; IC50 (human ETB receptor; Table 2, incubation at 4° C.): 1.15 ± 0.44 µM
27 | Cc1noc(NS(=O)(=O)c2cccn2-c2ccc(-c3ccccc3)cc2)c1Br [(4-bromo-3-methyl-5-isoxazolyl)-1-(4′-biphenyl)pyrrole-2-sulfonamide] | 9.17 | 7.84 | – | – | –
28 | COc1cc(C#N)c(NC(=O)c2sccc2S(=O)(=O)Nc2onc(C)c2Cl)c(OC)c1OC [N-(4-chloro-3-methyl-5-isoxazolyl)-2-[(2,3,4-trimethoxy-6-cyano)phenylaminocarbonyl]thiophene-3-sulfonamide] | – | – | 0.000169 | 12.5 | –
29 | COc1ccc(NC(=O)c2sccc2S(=O)(=O)Nc2onc(C)c2Br)cc1 [N-(4-Bromo-3-methyl-5-isoxazolyl)-2-[N-(4-methoxyphenyl)aminocarbonyl]thiophene-3-sulfonamide] | 0.002 | 2.12 | – | – | –
30 | N-(4-bromo-3-methyl-5-isoxazolyl)-3′-methoxyphenyl-4-biphenylsulfonamide | – | – | – | – | IC50 (human ETA receptors; Table 2, incubation at 4° C.): 4.97 ± 3.4 µM; IC50 (human ETA receptors; [1]): 163 ± 7.14 µM; IC50 (human ETB receptor; Table 2, incubation at 4° C.): 0.66 ± 0.25 µM; IC50 (human ETB receptor; [1]): 2.08 ± 0.23 µM
31 | Cc1noc(NS(=O)(=O)c2cc3ccccc3n2C)c1Br [N-(4-bromo-3-methyl-5-isoxazolyl)-1-methylindole-2-sulfonamide] | – | – | 77 | ~100 | –
